Assay: method code G-GLC, from Herzke, D.; Rotard, W. (1999). Physical-chemical properties of polyfluorinated dibenzodioxins and dibenzofurans. Organohalogen Compounds, 41, 171-174.

logP | SMILES
3 | Fc1c(F)c(F)c2c(c1F)Oc1c(F)c(F)c(F)c(F)c1O2
4 | Fc1cc2oc3c(F)c(F)c(F)c(F)c3c2cc1F
3.1 | Fc1cc(F)c2c(c1F)Oc1c(F)c(F)cc(F)c1O2
4.4 | Fc1ccc2oc3c(F)c(F)c(F)c(F)c3c2c1F
5.6 | Clc1ccc2oc3ccccc3c2c1Cl
3.3 | Fc1ccc2c(c1)Oc1ccc(F)cc1O2
3.1 | Fc1cc2c(c(F)c1F)Oc1c(F)cc(F)c(F)c1O2
3.8 | Fc1cc2c(cc1F)Oc1c(F)c(F)c(F)c(F)c1O2
3.4 | Fc1cc2c(oc3ccccc32)c(F)c1F
3.5 | Fc1cc2c(cc1F)Oc1cc(F)c(F)cc1O2
3.6 | Fc1ccc2c(c1)Oc1c(F)c(F)c(F)c(F)c1O2

SMILES | logP
Clc1c(Cl)c(Cl)c2c(c1Cl)Oc1c(Cl)c(Cl)c(Cl)c(Cl)c1O2 | 8.2
Clc1ccc2c(c1)Oc1ccc(Cl)cc1O2 | 5.7
Clc1cc2c(oc3ccccc32)c(Cl)c1Cl | 6.4

Source: the SangsterLogP compilation
